Experiment [1] relates to NR3C1 and MDK expression in primary FSPC. The experiment in a line: Western blot of NR3C1 and MDK expression in primary FSPC after iMDK treatment. The following applies: iMDK 100 nM, DDH group FSPC in vitro, compared with the DDH group. The class given is cell-based, human. Here is the method: (§1) The samples from the DDH group were divided into two portions, one of which was treated with iMDK in vitro (DDH cell samples were added with iMDK, where the iMDK was 100 nM), and the specific dosages and treatments were not restricted by reference to commonly used inhibitor treatments or mixed cultures, etc. Cells in the control group and DDH group were cultured in the same way (the difference is no iMDK treatment). Post-treatment samples were examined for the expression levels of NR3C1 and MDK and cell proliferation of primary FSPC from different groups after treatment with the MDK inhibitor (IMDK), using Western blot and the Edu assay, etc., and the results were shown in FIGS. 3E-3F. As shown in FIGS. 3E-3F, compared with the DDH group, the expression levels of NR3C1 and MDK were reduced and the cell proliferation was reduced in the control group. Compared with the DDH group, the expression levels of NR3C1 and MDK were reduced in iMDK-treated FSPC, and cell proliferation capacity was reduced.
For orientation: In western blotting, separated proteins are transferred to a membrane and probed.

The test system of experiment [2] is DDH rat model. Briefly: DDH rat model, iMDK injected into the hip joints (Micro CT, HE and safranin O-solid green staining, immunohistochemistry). The class given is in vivo, Wistar rats. The following applies: 5 mg/kg body weight into hip joints for 7 days. Here is the method: In some embodiments, a DDH rat model is established to illustrate the results of the present disclosure. The manner of establishing the DDH rat model is as follows.
Fifteen neonatal rodents (e.g., Wistar rats, etc.) were divided into the control group, DDH group, and iMDK group. The DDH rat model was prepared by fixing the hind limbs of rats in the DDH group and the iMDK group using medical adhesive tape, etc., and keeping the hip joints internally retracted or post-extended for 10 days. […] Neonatal rats were fed by their mothers and had normal growth, development, and nutritional status. Rats in the DDH group and the iMDK group were de-taped for 30 min daily.
After 10 days, iMDK (e.g., HY-110171, etc.) was injected into the hip joints of rats in the iMDK group at a dosage of 5 mg/kg body weight for 7 days. Rats in the DDH group and control group were injected with equal volumes of saline.
It can be seen from FIG. 4 that compared with the control group, the acetabulum of the rats in the DDH group became shallow and the hip joints were dislocated.
In some embodiments, hip specimens were stained with HE (hematoxylin-eosin staining) and safranin O-solid green SO, and the results are shown in FIGS. 5A-5B. As shown in FIGS. 5A-5B, the acetabular labrum was thickened and the articular structure was disorganized in the DDH group. The iMDK group inhibited abnormal manifestations within the joint such as thickening of the acetabular labrum and joint structure disorders.

Experiment [3] deals with primary FSPC. Briefly: Edu assay of cell proliferation of primary FSPC after iMDK treatment. The class given is cell-based, human. The following applies: iMDK 100 nM, DDH group FSPC in vitro, compared with the DDH group. How it is done:
as §1

[4] abbreviates: hip specimens, rank among DDH, DDH+iMDK and control groups.

“Also recorded” adds a separate entry of the source.

From US12636277B2, “Methods for treating developmental dysplasis of hip” (WEST CHINA HOSPITAL OF SICHUAN UNIVERSITY, priority 2024, dated 2026) come the findings set out here.

With `O=c1oc2ccccc2cc1-c1cn2cc(Cc3ccc(F)cc3)sc2n1` [iMDK], in experiment [1], the “expression level of MDK” value is “reduced” and the “expression level of NR3C1” value is “reduced”. The “abnormal manifestations within the joint such as thickening of the acetabular labrum and joint structure disorders (HE, safranin O-solid green staining)” value in experiment [2] (hip specimens) is recorded as “inhibited; also recorded: inhibits the thickening of the acetabular labrum”. In experiment [2] (setting [4]), the “expression level of Ki67 (immunohistochemistry)” value is “highest in the DDH group, followed by the DDH+iMDK group” and the “expression level of NR3C1 (immunohistochemistry)” value was “highest in the DDH group, followed by the DDH+iMDK group”. For the same compound, in experiment [2] (specimens 24 days after end of treatment), the “hip dislocation (Micro CT)” value was “significant improvement”. For the same compound, in experiment [3], the cell proliferation capacity result is “reduced”.
